Measurements reported in the supplement of paper PMC11061612.

What was measured:
Test in all cases: combination Emax (second highest fraction inhibited in the dose matrix, 72 h); higher = more inhibition; extreme values may be limits of the assay
GOTO (Neuroblastoma) = system: GOTO (Neuroblastoma)
Method in brief: (§1)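 After 24 hours at 37°C and 5% CO2 in 1536-well plates, cells in DMEM/F12 or RPMI plus 10% FBS received two-drug dose matrices for 72 hours. Viability came from CellTiter-Glo 2.0 luminescence and was scaled as inhibition, anchored at 0 by vehicle wells and at 1 by blank wells. Combination Emax is taken as the second-highest inhibition in the matrix, and Bliss excess as the observed combination effect less EA + EB − EA·EB, with EA and EB the single-agent effects.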

[1] = system: NCI-H322M (Lung Adenocarcinoma)
Method in brief: as §1

GI-1 (Glioblastoma) = system: GI-1 (Glioblastoma)
Method in brief: as §1

[2] = system: PF-382 (T-Lymphoblastic Leukemia)
Method in brief: as §1

[3] = system: HC-1 (Other Blood Carcinomas)
Method in brief: as §1

A704 (Kidney Carcinoma) = system: A704 (Kidney Carcinoma)
Method in brief: as §1

[4] = system: MFE-319 (Endometrial Carcinoma)
Method in brief: as §1

[5] = system: BV-173 (Chronic Myelogenous Leukemia)
Method in brief: as §1

[6] = system: JHH-7 (Hepatocellular Carcinoma)
Method in brief: as §1

[7] = system: OVISE (Ovarian Carcinoma)
Method in brief: as §1

[8] = system: NCI-N87 (Gastric Carcinoma)
Method in brief: as §1

NH-12 (Neuroblastoma) = system: NH-12 (Neuroblastoma)
Method in brief: as §1

[9] = system: SCC-9 (Oral Cavity Carcinoma)
Method in brief: as §1

[10] = system: TGBC11TKB (Gastric Carcinoma)
Method in brief: as §1

EW-3 (Ewing's Sarcoma) = system: EW-3 (Ewing's Sarcoma)
Method in brief: as §1

[11] = system: KYSE-150 (Esophageal Squamous Cell Carcinoma)
Method in brief: as §1

[12] = system: EBC-1 (Squamous Cell Lung Carcinoma)
Method in brief: as §1

[13] = system: LC4-1 (B-Lymphoblastic Leukemia)
Method in brief: as §1

RPMI-7951 (Melanoma) = system: RPMI-7951 (Melanoma)
Method in brief: as §1

EW-13 (Ewing's Sarcoma) = system: EW-13 (Ewing's Sarcoma)
Method in brief: as §1

Row | Structure (SMILES) | combination Emax (GOTO (Neuroblastoma)) | combination Emax [1] | combination Emax (GI-1 (Glioblastoma)) | combination Emax [2] | combination Emax [3] | combination Emax (A704 (Kidney Carcinoma)) | combination Emax [4] | combination Emax [5] | combination Emax [6] | combination Emax [7] | combination Emax [8] | combination Emax (NH-12 (Neuroblastoma)) | combination Emax [9] | combination Emax [10] | combination Emax (EW-3 (Ewing's Sarcoma)) | combination Emax [11] | combination Emax [12] | combination Emax [13] | combination Emax (RPMI-7951 (Melanoma)) | combination Emax (EW-13 (Ewing's Sarcoma))
1 | CC1(C)CCC(CN2CCN(c3ccc(C(=O)NS(=O)(=O)c4ccc(NCC5CCOCC5)c([N+](=O)[O-])c4)c(Oc4cnc5[nH]ccc5c4)c3)CC2)=C(c2ccc(Cl)cc2)C1 [Venetoclax] + C=CCn1c(=O)c2cnc(Nc3ccc(N4CCN(C)CC4)cc3)nc2n1-c1cccc(C(C)(C)O)n1 [AZD1775] (first compound max 1 µM, partner max 1 µM) | 0.921 | 0.862 | 0.902 | 0.986 | 1 | 0.463 | 0.858 | 0.941 | 0.349 | 0.669 | 0.8 | 0.952 | 0.294 | 0.942 | 0.819 | 0.496 | 0.248 | 1 | 0.731 | 0.129
2 | COc1cccc2c1C(=O)c1c(O)c3c(c(O)c1C2=O)C[C@@](O)(C(=O)CO)C[C@@H]3O[C@H]1C[C@H](N)[C@H](O)[C@H](C)O1 [Doxorubicin] + Cc1cc2ncnn2cc1Nc1ncc2c(n1)n(C1CCOCC1)c(=O)n2C [AZD7648] (first compound max 1 µM, 7x7, partner max 10 µM) | 0.816 | 0.792 | 0.929 | 0.989 | 0.975 | 0.176 | 0.552 | 0.994 | 0.411 | 0.554 | 0.726 | 0.944 | 0.411 | 0.203 | 0.788 | 0.958 | 0.496 | 1 | 0.957 | 0.745
3 | CC1(C)CCC(CN2CCN(c3ccc(C(=O)NS(=O)(=O)c4ccc(NCC5CCOCC5)c([N+](=O)[O-])c4)c(Oc4cnc5[nH]ccc5c4)c3)CC2)=C(c2ccc(Cl)cc2)C1 [Venetoclax] + C[C@@H]1COCCN1C2=NC(=NC(=C2)C3(CC3)[S@](=N)(=O)C)C4=C5C=CNC5=NC=C4 [AZD6738] (first compound max 1 µM, 7x7, partner max 10 µM) | 0.966 | 0.894 | 0.918 | 0.927 | 0.864 | 0.48 | 0.837 | 0.954 | 0.285 | 0.677 | 0.736 | 0.968 | 0.342 | 0.901 | 0.844 | 0.628 | 0.514 | 1 | 0.887 | 0.671
4 | CC(=O)Nc1cccc(-n2c(=O)n(C3CC3)c(=O)c3c(Nc4ccc(I)cc4F)n(C)c(=O)c(C)c32)c1 [Trametinib] + Cc1nc(-c2cn3c(n2)-c2ccc(-c4cnn(C(C)(C)C(N)=O)c4)cc2OCC3)n(C(C)C)n1 [Taselisib] (first compound max 1 µM, 7x7, partner max 10 µM) | 0.701 | 0.887 | 0.766 | 0.905 | 0.665 | 0.892 | 0.799 | 0.854 | 0.429 | 0.696 | 0.913 | 0.841 | 0.954 | 0.86 | 0.364 | 0.886 | 1 | 0.328 | 0.931 | 0.262
5 | Cn1cnc2c(F)c(Nc3ccc(Br)cc3Cl)c(C(=O)NOCCO)cc21 [Selumetinib] + CCN(CCO)CCCOc1ccc2c(Nc3cc(CC(=O)Nc4cccc(F)c4)[nH]n3)ncnc2c1 [AZD2811] (first compound max 10 µM, 7x7, partner max 1 µM) | 0.648 | 0.602 | 0.286 | 0.911 | 0.702 | 0.178 | 0.262 | 0.952 | 0.25 | 0.273 | 0.305 | 0.729 | 0.494 | 0.569 | 0.444 | 0.492 | 0.964 | 0.891 | 0.425 | 0.218
6 | Cc1cc2ncnn2cc1Nc1ncc2c(n1)n(C1CCOCC1)c(=O)n2C [AZD7648] + CN(C)CCCOc1ccc(-c2ccc3ncc4c(c3c2)n(C2CCOCC2)c(=O)n4C)cn1 [AZD0156] (first compound max 10 µM, 7x7, partner max 1 µM) | 0.163 | 0.368 | 0.261 | 0.478 | 0.386 | 0.215 | 0.311 | 0.386 | 0.177 | 0.366 | 0.477 | 0.153 | 0.24 | 0.247 | 0.386 | 0.532 | 0.218 | 0.42 | 0.396 | 0.325
7 | Cc1cc2ncnn2cc1Nc1ncc2c(n1)n(C1CCOCC1)c(=O)n2C [AZD7648] + O=C(c1cc(Cc2n[nH]c(=O)c3ccccc23)ccc1F)N1CCN(C(=O)C2CC2)CC1 [Olaparib] (first compound max 10 µM, 7x7, partner max 10 µM) | 0.525 | 0.325 | 0.261 | 0.49 | 0.521 | 0.226 | 0.118 | 0.897 | 0.159 | 0.19 | 0.301 | 0.317 | 0.0663 | 0.269 | 0.657 | 0.537 | 0.202 | 0.442 | 0.303 | 0.564
